Measurements as given in patent US9693954B2, “Co-delivery of stimulatory and inhibitory factors to create temporally stable and spatially restricted zones” (President and Fellows of Harvard College, priority 2010, dated 2017).

Key:
[1] = tested on: TGF-β reporter line (MLEC p3TP Luc); assay: TGF-β reporter cell line luciferase activity; assay type: cell-based
Procedure: (§1) FIG. 22E is a schematic showing an experimental scheme to show the precise kinetics of growth factor exposure on luciferase activity in the reporter lines. Following seeding and serum starvation (reduces background), a specific inhibitor is added to create a uniform inhibitory field. Subsequently, for given amounts of time, the inhibitor is washed off, the growth factor (either TGF-β1 or BMP4) is added for specified time, and washed off followed by re-addition of the inhibitor. At 24 hours, cells are lysed and assayed for luciferase activity.
(§2) The reporter cell lines were seeded in these 5 layered systems and imaged for luciferase activity after 24 hours to confirm development of spatially distinct morphogens fields.

[2] = tested on: phospho-Smad2 in D1 (MSCs); assay: immunoblot / immunostaining for phospho-Smad2 (2/3) in D1 MSCs; assay type: cell-based
Procedure: (§3) Experiments were carried out with the following morphogens: TGF-β1 to drive dentin differentiation and BMP4 to drive bone differentiation. The scaffold devices were fabricated, loaded with morphogens (in this case, differentiation factors), and then seeded with stem cells, e.g., mesendymal stem cells, embryonic stem cells or induced pluripotent stem cells (iPS)). The loaded, seeded devices were cultured for 21 days with no additional factors present in the media. All factors came from within the scaffold from the point of seeding. Immunoblots were carried out to assess activation of the downstream Smad signaling pathways following treatment of D1s with these morphogens.

[3] = tested on: dermal human vascular endothelial cells (HMVECs); assay: in vitro sprouting assay (cell-seeded dextran beads in fibrin gel); assay type: cell-based; details: HMVEC-coated beads in fibrin gel, 4 days, 10 ng/mL HGF in all media
Procedure: Briefly, dermal human vascular endothelial cells (HMVECs) were purchased from Lonza (CC-2543) and cultured to confluence at 37° C. and 5% CO2 in microvascular endothelial cell growth medium-2 (EGM-2MV) (Lonza) containing all supplements. Angiogenic activity of endothelial cells was assessed using a modification of a widely used in vitro sprouting assay (Nehls, V., and Drenckhahn, D. 1995 Microvasc Res 50, 311-322). Briefly, dextran beads microcarriers (Cytodex 3) with a dry weight of 50 mg were swollen in PBS and autoclaved. The microcarriers were washed in EGM-2MV medium and seeded with 3×10^6 HMVECs in a spinner flask. The microcarriers were stirred for 2 minutes out of 30 minutes for […] at 37° C. incubation. After 4 hours, the beads and cells mixture were continuously stirred and incubated for an additional 20 hours. The cell-coated beads were then seeded in fibrin gel in a 24-well-plate. The composition of the fibrin gel in each well was 0.682 mg fibrinogen (Sigma, T3879), 11.4 μg aprotinin (Sigma, A4529), 0.455 U thrombin (Sigma, T6884) in 393 μL of phosphate buffered saline (PBS) and 57 μL of EGM2-MV. Gels were incubated at 37° C. for 30 minutes and media of experimental conditions were placed on top of the gel. […] Media were changed every 24 hours and the cells were allowed to sprout from beads into surrounding gel over 4 days. […]

angiogenesis = details: from previous studies; cited from earlier work
[4] = tested on: BMP4 reporter (C2C12 BRE Luc); assay: BMP4 reporter cell line luciferase activity; assay type: cell-based
Procedure: as §1, §2

[5] = tested on: phospho-Smad1/5/8 in D1 (MSCs); assay: immunoblot for phospho-Smad1/5/8 in D1 MSCs; assay type: cell-based
Procedure: as §3

[6] = inhibitor wash-off / re-addition scheme, lysis at 24 hours

TGF-β1: transforming growth factor-β1, morphogen used to drive dentin differentiation
luciferase activity with varying TGF-β1 concentration [1]: linear dose dependence | exposure time sufficient for maximal induction of luciferase activity [1, 6]: 5 to 15 min | phospho-Smad2 activation (immunoblot) [2]: dose-dependent activation | phospho-Smad2/3 immunostaining ([2]; following stimulation): nuclear localization of activated Smads

VEGF
angiogenic sprouting (number of sprouts per bead) [3]: induced angiogenic sprouting | minimum effective VEGF concentration in vivo to induce angiogenesis (angiogenesis): ~5 ng/mL

B1: BMP4: bone morphogenetic protein 4, morphogen used to drive bone differentiation (protein, UniProt P12644 293-408, looked up)
Bone morphogenetic protein 4: SPKHHSQRARKKNKNCRRHSLYVDFSDVGWNDWIVAPPGYQAFYCHGDCPFPLADHLNSTNHAIVQTLVNSVNSSIPKACCVPTELSAISMLYLDEYDKVVLKNYQEMVVEGCGCR
luciferase activity with varying BMP4 concentration [4]: linear dose dependence | exposure time sufficient for maximal induction of luciferase activity [4, 6]: 5 to 15 min | phospho-Smad1/5/8 activation (immunoblot) [5]: dose-dependent activation
